What was measured:
rat [1] = settings: Chronic toxicity, wistar, Oral, Water, dose end: 12 month, group: systemic
rabbit = settings: Prenatal developmental toxicity study, himalayan, Oral, Gavage/Intubation, dose end: 19 GD
dog = settings: Subchronic oral toxicity in nonrodent, beagle, Water, dose end: 90 day, group: systemic, systemic / in life observation / clinical signs / vomitting
rat [2] = settings: Subchronic inhalation toxicity, fischer, Whole-Body, dose end: 13 week, group: systemic
mouse [3] = settings: Chronic toxicity; b6c3f1; Inhalation; Whole-Body; dose end: 78 week; group: systemic; systemic / in life observation / body weight / body weight gain + systemic / pathology microscopic / nose / hyperplasia
rat [4] = settings: Multigenerational reproductive toxicity study, sprague dawley, Oral, Water, dose end: 2 generation
rat [5] = settings: Prenatal developmental toxicity study, wistar, Oral, Gavage/Intubation, dose end: 15 GD
rat [6] = settings: Multigenerational reproductive toxicity study, sprague dawley, Oral, Water, dose end: 2 generation; remark: listed apart in the source
rat [7] = settings: Subchronic dermal toxicity, sprague dawley, Topical, dose end: 90 day, group: systemic, systemic / pathology gross / skin / scabbing + systemic / pathology microscopic / skin / acanthosis + systemic / pathology microscopic / …
mouse [8] = settings: Subchronic inhalation toxicity, b6c3f1, Whole-Body, dose end: 13 week
rat [9] = settings: Carcinogenicity, wistar, Oral, Water, dose end: 24 month, group: systemic
rat [10] = settings: Multigenerational reproductive toxicity study, wistar, Oral, Water, dose end: 2 generation
mouse [11] = settings: Subchronic oral toxicity in rodents, cd1, Water, dose end: 90 day, group: systemic, systemic / pathology microscopic / stomach / inflammation + systemic / urinalysis / specific gravity/osmolality / specific gravity/…
rat [12] = settings: Combined chronic toxicity/carcinogenicity, fischer, Oral, Water, dose end: 104 week, group: systemic
rat [13] = settings: Multigenerational reproductive toxicity study; sprague dawley; Oral; Feed; dose end: 2 generation; group: offspring; systemic / in life observation / body weight / offspring (pup) weight
mouse [14] = settings: Carcinogenicity, cd1, Oral, Feed, dose end: 104 week, group: systemic
rat [15] = settings: Prenatal developmental toxicity study, sprague dawley, Oral, Gavage/Intubation, dose end: 15 GD
[16] = systemic / in life observation / body weight / body weight gain + systemic / pathology gross / stomach / erosion + systemic / pathology …
[17] = group: developmental, systemic / in life observation / body weight / fetal weight
[18] = group: maternal, systemic / in life observation / body weight / body weight + systemic / in life observation / body weight / body weight gain + systemic / in…
[19] = systemic / pathology microscopic / nose / [other] + systemic / pathology microscopic / nose / hyperplasia + systemic / pathology microscopic…
[20] = group: offspring, systemic / in life observation / body weight / offspring (pup) weight gain
[21] = group: parental, systemic / in life observation / water consumption / water consumption
[22] = group: maternal, systemic / in life observation / body weight / body weight gain + systemic / in life observation / clinical signs / piloerection + systemic…
[23] = group: maternal, systemic / in life observation / clinical signs / piloerection
[24] = group: offspring, systemic / in life observation / body weight / offspring (pup) weight
[25] = group: parental, systemic / in life observation / food consumption / food consumption
[26] = group: parental, systemic / in life observation / food consumption / food consumption + systemic / pathology gross / lymph node / enlarged + systemic / …
[27] = group: developmental, developmental / developmental malformation / penis / paraphimosis
[28] = group: maternal, reproductive / reproductive performance / estrous cycle / abnormal
[29] = group: systemic, systemic / pathology microscopic / nose / inflammation
[30] = group: systemic, systemic / pathology microscopic / nose / inflammation + systemic / in life observation / body weight / body weight gain
[31] = systemic / in life observation / water consumption / water consumption
[32] = group: offspring, systemic / in life observation / body weight / litter weight + systemic / in life observation / body weight / offspring (pup) weight
[33] = group: parental, systemic / in life observation / body weight / body weight + systemic / in life observation / body weight / body weight gain + systemic / in…
[34] = systemic / organ weight / kidney / relative to body weight + systemic / in life observation / clinical signs / urine staining - perineum + …
[35] = systemic / organ weight / kidney / relative to body weight + systemic / pathology gross / stomach / [other] + systemic / clinical chemistry…
[36] = systemic / in life observation / body weight / body weight gain + systemic / pathology microscopic / intestine small / hyperplasia + …
[37] = group: developmental, developmental / developmental malformation / bone / absent + developmental / developmental malformation / bone / fused + developmental / …
[38] = group: maternal, systemic / in life observation / clinical signs / alopecia + systemic / in life observation / clinical signs / defecation (diarrhea) + …

For `O=CCCCC=O` [Glutaraldehyde], the LOAEL (rat [1]; [16]) was 58.9 mg/kg/day, the NOAEL (rat [1]; [16]) was 15.4 mg/kg/day and the LEL (rat [1]; systemic / pathology gross / pituitary gland / enlarged) was 23.2 mg/kg/day. For the same molecule, the NEL (rat [1]; systemic / pathology gross / pituitary gland / enlarged + systemic / in life observation / clinical signs / abnormal respiratory sounds + …) was 4.8 mg/kg/day, the LEL (rabbit; [17]) was 45 mg/kg/day and the LOAEL (rabbit; [17]) was 45 mg/kg/day. The NEL (rabbit; [17]) was 15 mg/kg/day, the NOAEL (rabbit; [17]) was 15 mg/kg/day and the LEL (rabbit; [18]) was 45 mg/kg/day. For the same molecule, the LOAEL (rabbit; [18]) was 45 mg/kg/day, the NEL (rabbit; [18]) was 15 mg/kg/day and the NOAEL (rabbit; [18]) was 15 mg/kg/day. It also gave an LEL (dog) of 14.6 mg/kg/day, an LOAEL (dog) of 14.6 mg/kg/day and an NEL (dog) of 9.8 mg/kg/day. It also gave an NOAEL (dog) of 9.8 mg/kg/day, an LEL (rat [2]; systemic / hematology / neutrophils / neutrophils) of 0.125 ppm and an NEL (rat [2]; systemic / hematology / neutrophils / neutrophils + systemic / clinical chemistry / alanine aminotransferase (alt/sgpt) / alanine …) of 0.0625 ppm. It also gave an LOAEL (rat [2]; [19]) of 0.25 ppm, an NOAEL (rat [2]; [19]) of 0.125 ppm and an LEL (mouse [3]) of 0.1 ppm. The LOAEL (mouse [3]) was > 0.1 ppm, the NEL (mouse [3]) was < 0.1 ppm and the NOAEL (mouse [3]) was ≥ 0.1 ppm. For the same molecule, the LEL (rat [4]; [20]) was 98.4 mg/kg/day, the LOAEL (rat [4]; [20]) was 98.4 mg/kg/day and the NEL (rat [4]; [20]) was 28.3 mg/kg/day. For the same molecule, the NOAEL (rat [4]; [20]) was 28.3 mg/kg/day, the LEL (rat [4]; [21]) was 19.5 mg/kg/day and the LOAEL (rat [4]; [21]) was > 69.1 mg/kg/day. For the same molecule, the NEL (rat [4]; [21]) was 4.25 mg/kg/day, the NOAEL (rat [4]; [21]) was ≥ 69.1 mg/kg/day and the LEL (rat [5]; [17]) was 100 mg/kg/day. The LOAEL (rat [5]; [17]) was > 100 mg/kg/day, the NEL (rat [5]; [17]) was 50 mg/kg/day and the NOAEL (rat [5]; [17]) was ≥ 100 mg/kg/day. The LOAEL (rat [5]; [22]) was > 100 mg/kg/day, the NOAEL (rat [5]; [22]) was ≥ 100 mg/kg/day and the LEL (rat [5]; [23]) was 25 mg/kg/day. For the same molecule, the NEL (rat [5]; [23]) was < 25 mg/kg/day, the LEL (rat [6]; [24]) was 71.1 mg/kg/day and the LOAEL (rat [6]; [24]) was 71.1 mg/kg/day. The NEL (rat [6]; [24]) was 20.9 mg/kg/day, the NOAEL (rat [6]; [24]) was 20.9 mg/kg/day and the LEL (rat [6]; [25]) was 19.5 mg/kg/day. For the same molecule, the LOAEL (rat [6]; [25]) was 19.5 mg/kg/day, the NEL (rat [6]; [26]) was 4.25 mg/kg/day and the NOAEL (rat [6]; [26]) was 4.25 mg/kg/day. The LEL (rat [7]) was 50 mg/kg/day, the LOAEL (rat [7]) was 50 mg/kg/day and the NEL (rat [7]) was < 50 mg/kg/day. For the same molecule, the NOAEL (rat [7]) was < 50 mg/kg/day, the LEL (mouse [8]; [27]) was 1 ppm and the LOAEL (mouse [8]; [27]) was > 1 ppm. For the same molecule, the NEL (mouse [8]; [27]) was 0.5 ppm, the NOAEL (mouse [8]; [27]) was ≥ 1 ppm and the LEL (mouse [8]; [28]) was 0.5 ppm. For the same molecule, the LOAEL (mouse [8]; [28]) was > 1 ppm, the NEL (mouse [8]; [28]) was 0.25 ppm and the NOAEL (mouse [8]; [28]) was ≥ 1 ppm. The LOAEL (mouse [8]; [29]) was 0.0625 ppm, the NOAEL (mouse [8]; [29]) was < 0.0625 ppm and the LEL (mouse [8]; [30]) was 0.0625 ppm. For the same molecule, the NEL (mouse [8]; [30]) was < 0.0625 ppm, the LEL (rat [9]; [31]) was 5.3 mg/kg/day and the NEL (rat [9]; [31]) was < 5.3 mg/kg/day. For the same molecule, the LOAEL (rat [9]; systemic / pathology microscopic / larynx / metaplasia) was 61 mg/kg/day, the NOAEL (rat [9]; systemic / pathology microscopic / larynx / metaplasia + systemic / in life observation / body weight / body weight + systemic / in life …) was 16.1 mg/kg/day and the LEL (rat [10]; [32]) was 76 mg/kg/day. The LOAEL (rat [10]; [32]) was 76 mg/kg/day, the NEL (rat [10]; [32]) was 22.4 mg/kg/day and the NOAEL (rat [10]; [32]) was 22.4 mg/kg/day. It also gave an LOAEL (rat [10]; [33]) of 76 mg/kg/day, an NOAEL (rat [10]; [33]) of 22.4 mg/kg/day and an LEL (rat [10]; [21]) of 22.4 mg/kg/day. It also gave an NEL (rat [10]; [21]) of 4.7 mg/kg/day, an LEL (mouse [11]) of 200 mg/kg/day and an LOAEL (mouse [11]) of 200 mg/kg/day. The NEL (mouse [11]) was 60.8 mg/kg/day, the NOAEL (mouse [11]) was 60.8 mg/kg/day and the LEL (rat [12]; [34]) was 4 mg/kg/day. For the same molecule, the NEL (rat [12]; [34]) was < 4 mg/kg/day, the LOAEL (rat [12]; [35]) was > 64 mg/kg/day and the NOAEL (rat [12]; [35]) was ≥ 64 mg/kg/day.

`N#CSCSc1nc2ccccc2s1` [2-(Thiocyanomethylthio)benzothiazole] gave an LEL (rat [13]) of 38.4 mg/kg/day, an LOAEL (rat [13]) of 38.4 mg/kg/day and an NEL (rat [13]) of 9.6 mg/kg/day. For the same molecule, the NOAEL (rat [13]) was 9.6 mg/kg/day, the LOAEL (mouse [14]; systemic / in life observation / body weight / body weight gain + systemic / pathology microscopic / intestine small / hyperplasia) was 148 mg/kg/day and the LEL (mouse [14]; [36]) was 148 mg/kg/day. It also gave an NEL (mouse [14]; [36]) of 49.3 mg/kg/day, an NOAEL (mouse [14]; [36]) of 49.3 mg/kg/day and an LEL (rat [15]; [37]) of 126 mg/kg/day. It also gave an LOAEL (rat [15]; [37]) of 126 mg/kg/day, an NEL (rat [15]; [37]) of 76.5 mg/kg/day and an NOAEL (rat [15]; [37]) of 76.5 mg/kg/day. The LEL (rat [15]; [38]) was 76.5 mg/kg/day, the LOAEL (rat [15]; [38]) was 76.5 mg/kg/day and the NEL (rat [15]; [38]) was 25.1 mg/kg/day. The NOAEL (rat [15]; [38]) was 25.1 mg/kg/day.

— EPA's ToxRefDB 2
